Measured values as given in patent US4247687A, “Aminoglycoside antibiotic derivatives and process for their preparation” (Farmitalia Carlo Erba S.p.A., priority 1979, dated 1981).
≈ marks a conversion by molar mass, not a printed value. Read-outs that look alike come from different tables or passages of the source.

Key:
Assay type in all cases: cell-based
P. aeruginosa 53825 = test: Conventional agar dilution, MIC; settings: Pseudomonas aeruginosa
Method: (§1) The antibacterial activity is determined by the conventional agar dilution method, and the minimal inhibitory concentration (MIC) is expressed in mcg/ml.

[1] = system: E. coli K 12 R 112 (NPT I); test: Conventional agar dilution, MIC; settings: Escherichia coli
Method: as §1

P. aeruginosa 47823 = test: Conventional agar dilution, MIC; settings: Pseudomonas aeruginosa
Method: as §1

P. sp. V 16 = test: Conventional agar dilution, MIC
Method: as §1

E. coli K 12 R 55 (GNT) = test: Conventional agar dilution, MIC; settings: Escherichia coli
Method: as §1

[2] = system: E. coli K 12 R 118 (NPT II); test: Conventional agar dilution, MIC; settings: Escherichia coli
Method: as §1

P. mirabilis V 15 = test: Conventional agar dilution, MIC; settings: Proteus mirabilis, V15
Method: as §1

P. aeruginosa B = test: Conventional agar dilution, MIC; settings: Pseudomonas aeruginosa
Method: as §1

[3] = system: Pseudomonas aeruginosa 9229; test: Conventional agar dilution, MIC
Method: as §1

Proteus vulgaris = test: Conventional agar dilution, MIC
Method: as §1

P. aeruginosa 6 = test: Conventional agar dilution, MIC; settings: Pseudomonas aeruginosa
Method: as §1

Proteus mirabilis 525 = test: Conventional agar dilution, MIC
Method: as §1

Escherichia coli K 12 = test: Conventional agar dilution, MIC; settings: K12
Method: as §1

P. aeruginosa 4 = test: Conventional agar dilution, MIC; settings: Pseudomonas aeruginosa
Method: as §1

P. aeruginosa 5 = test: Conventional agar dilution, MIC; settings: Pseudomonas aeruginosa
Method: as §1

P. aeruginosa 53585 = test: Conventional agar dilution, MIC; settings: Pseudomonas aeruginosa
Method: as §1

P. aeruginosa 19660 = test: Conventional agar dilution, MIC; settings: Pseudomonas aeruginosa
Method: as §1

[4] = system: Staphylococcus aureus 209 P; test: Conventional agar dilution, MIC
Method: as §1

bacterial strains = test: Antibacterial "in vitro" activity, conventional agar dilution (overall); settings: in words, compared with neomycin B and paromomycin (1)
Method: as §1

Compound	MIC (P. aeruginosa 53825; 53825)	MIC [1]	MIC (P. aeruginosa 47823; 47823)	MIC (P. sp. V 16)	MIC (E. coli K 12 R 55 (GNT))	MIC [2]	MIC (P. mirabilis V 15)	MIC (P. aeruginosa B)	MIC ([3]; Pseudomonas aeruginosa, 9229)	MIC (Proteus vulgaris)	MIC (P. aeruginosa 6; 6)	MIC (Proteus mirabilis 525; Proteus mirabilis, 525)	MIC (Escherichia coli K 12; Escherichia coli)	MIC (P. aeruginosa 4; 4)	MIC (P. aeruginosa 5; 5)	MIC (P. aeruginosa 53585; 53585)	MIC (P. aeruginosa 19660; 19660)	MIC ([4]; Staphylococcus aureus, 209P)	other results
NC[C@@H]1O[C@H](O[C@H]2[C@@H](O)[C@H](O[C@@H]3[C@@H](O)[C@H](N)C[C@H](N)[C@H]3O[C@H]3O[C@H](CN)[C@@H](O)[C@H](O)[C@H]3N)O[C@@H]2CO)[C@H](N)[C@@H](O)[C@@H]1O [Neomycin B, neomycin B]	> 100 µg/mL	> 200 µg/mL	> 100 µg/mL	> 100 µg/mL	6.25 µg/mL (≈ 10.2 µM)	200 µg/mL (≈ 325 µM)	25 µg/mL (≈ 40.7 µM)	> 100 µg/mL	100 µg/mL (≈ 163 µM)	25 µg/mL (≈ 40.7 µM)	25 µg/mL (≈ 40.7 µM)	12.5 µg/mL (≈ 20.3 µM)	6.25 µg/mL (≈ 10.2 µM)	25 µg/mL (≈ 40.7 µM)	50 µg/mL (≈ 81.3 µM)	> 100 µg/mL	50 µg/mL (≈ 81.3 µM)	1.55 µg/mL (≈ 2.52 µM)	
NC[C@@H]1O[C@H](O[C@H]2[C@@H](O)[C@H](O[C@@H]3[C@@H](O)[C@H](N)C[C@H](N)[C@H]3O[C@H]3O[C@H](CO)[C@@H](O)[C@H](O)[C@H]3N)O[C@@H]2CO)[C@H](N)[C@@H](O)[C@@H]1O [Paromomycin (1), paromomycin]	> 100 µg/mL	> 200 µg/mL	> 100 µg/mL	> 100 µg/mL	12.5 µg/mL (≈ 20.3 µM)	200 µg/mL (≈ 325 µM)	25 µg/mL (≈ 40.6 µM)	> 100 µg/mL	> 100 µg/mL	50 µg/mL (≈ 81.2 µM)	> 100 µg/mL	25 µg/mL (≈ 40.6 µM)	12.5 µg/mL (≈ 20.3 µM)	> 100 µg/mL	> 100 µg/mL	> 100 µg/mL	> 100 µg/mL	1.55 µg/mL (≈ 2.52 µM)	
NC[C@@H]1C[C@H](O)[C@@H](N)[C@@H](O[C@H]2[C@H](O[C@@H]3O[C@H](CO)[C@@H](O[C@H]4O[C@@H](CN)[C@@H](O)[C@H](O)[C@H]4N)[C@H]3O)[C@@H](O)[C@H](N)C[C@@H]2N)O1 [compound 8, 4'-deoxyneomycin B]		> 200 µg/mL		> 100 µg/mL	3.12 µg/mL (≈ 5.21 µM)	25 µg/mL (≈ 41.8 µM)													MIC (P. aeruginosa 53825; P. aeruginosa 53825, agar dilution, read-out: MIC): 50 µg/mL (≈ 83.5 µM); MIC (P. aeruginosa 47823; P. aeruginosa 47823, agar dilution, read-out: MIC): 12.5 µg/mL (≈ 20.9 µM); MIC (P. mirabilis V 15; P. mirabilis V 15, agar dilution, read-out: MIC): 12.5 µg/mL (≈ 20.9 µM); MIC (P. aeruginosa B; P. aeruginosa B, agar dilution, read-out: MIC): 25 µg/mL (≈ 41.8 µM); MIC ([3]; Pseudomonas aeruginosa 9229, agar dilution, read-out: MIC): 25 µg/mL (≈ 41.8 µM); MIC (Proteus vulgaris; agar dilution, read-out: MIC): 12.5 µg/mL (≈ 20.9 µM); MIC (P. aeruginosa 6; P. aeruginosa 6, agar dilution, read-out: MIC): 12.5 µg/mL (≈ 20.9 µM); MIC (Proteus mirabilis 525; Proteus mirabilis 525, agar dilution, read-out: MIC): 6.2 µg/mL (≈ 10.4 µM); MIC (Escherichia coli K 12; Escherichia coli K 12, agar dilution, read-out: MIC): 3.12 µg/mL (≈ 5.21 µM); MIC (P. aeruginosa 4; P. aeruginosa 4, agar dilution, read-out: MIC): 12.5 µg/mL (≈ 20.9 µM); MIC (P. aeruginosa 5; P. aeruginosa 5, agar dilution, read-out: MIC): 25 µg/mL (≈ 41.8 µM); MIC (P. aeruginosa 53585; P. aeruginosa 53585, agar dilution, read-out: MIC): 25 µg/mL (≈ 41.8 µM); MIC (P. aeruginosa 19660; P. aeruginosa 19660, agar dilution, read-out: MIC): 25 µg/mL (≈ 41.8 µM); MIC ([4]; Staphylococcus aureus 209 P, agar dilution, read-out: MIC): 0.77 µg/mL (≈ 1.29 µM); antibacterial "in vitro" activity (bacterial strains; listed as 4'-Deoxy-neomycin B (8)): higher and broader when compared with those of neomycin B and paromomycin (1); antibacterial "in vitro" activity (bacterial strains; listed as 4'-deoxy-neomycin B (8)): higher and broader when compared with that of neomycin B
